Laboratory results from ChEMBL document CHEMBL4346723, “Targeting tropomyosin receptor kinase for cancer therapy” (Eur J Med Chem, 2019).

What was measured:
[1] = target: T1, High affinity nerve growth factor receptor (Homo sapiens, UniProt P04629); test: Inhibition of recombinant full length human TRKA expressed in U2OS cells using Poly(Glu:Tyr) as substrate after 30 mins by scintillation counting assay
[2] = Inhibition of TRK (unknown origin); set-up: species or system Homo sapiens
[3] = target: T1, High affinity nerve growth factor receptor; test: Inhibition of recombinant His-tagged human TRKA cytoplasmic domain (441 to 796 residues) expressed in baculovirus expression system using biotin labelled TK peptide preincubated for 20 mins followed by substrate addition by HTRF assay
[4] = target: T1, High affinity nerve growth factor receptor; test: Inhibition of human TRKA expressed in human AD293 cells assessed as reduction in TrkA phosphorylation at Tyr490 residues preincubated for 20 mins followed by NGF-stimulation measure after 5 mins by ELISA; assay type: cell-based
[5] = test system: SU-DHL-1; test: cells; details: Homo sapiens, SU-DHL-1, 48 h
Description: Antiproliferative activity against human SU-DHL1 cells incubated for 48 hrs by sulforhodamine B assay

[6] = cells; details: Homo sapiens, SR-786, 48 h
Description: Antiproliferative activity against human SR786 cells incubated for 48 hrs by sulforhodamine B assay

[7] = cells; details: Homo sapiens, SUP-M2, 48 h
Description: Antiproliferative activity against human SUP-M2 cells incubated for 48 hrs by sulforhodamine B assay

[8] = test system: MV4-11; test: cells; details: Homo sapiens, MV4-11, 48 h
Description: Antiproliferative activity against human MV4-11 cells incubated for 48 hrs by sulforhodamine B assay

[9] = test system: KARPAS-299; test: cells; details: Homo sapiens, KARPAS-299, 48 h
Description: Antiproliferative activity against human KARPAS299 cells incubated for 48 hrs by sulforhodamine B assay

[10] = target: T1, High affinity nerve growth factor receptor; test: Inhibition of NTRK1 in human KM12 cells; assay type: cell-based
[11] = target: T1, High affinity nerve growth factor receptor; test: Inhibition of TRKA (unknown origin) using poly GT as substrate preincubated for 30 mins followed by substrate addition measured after 30 mins by TR-FRET Assay
[12] = target: NTRK1/NTRK2 (Homo sapiens, UniProt P04629+Q16620); test: Inhibition of TRKA/TRKB (unknown origin); assay type: protein assay
[13] = target: T1, High affinity nerve growth factor receptor; test: Inhibition TRKA (unknown origin)
[14] = target: T1, High affinity nerve growth factor receptor; test: Inhibition TRKA (unknown origin) by cell based assay
[15] = test system: IMR-32; test: Antiproliferative activity against human IMR32 cells by sulforhodamine B assay; assay type: functional, cell-based
[16] = target: T2, BDNF/NT-3 growth factors receptor (Homo sapiens, UniProt Q16620); test: Inhibition of TRKB (unknown origin)
T2 sequence (Q16620 whole entry): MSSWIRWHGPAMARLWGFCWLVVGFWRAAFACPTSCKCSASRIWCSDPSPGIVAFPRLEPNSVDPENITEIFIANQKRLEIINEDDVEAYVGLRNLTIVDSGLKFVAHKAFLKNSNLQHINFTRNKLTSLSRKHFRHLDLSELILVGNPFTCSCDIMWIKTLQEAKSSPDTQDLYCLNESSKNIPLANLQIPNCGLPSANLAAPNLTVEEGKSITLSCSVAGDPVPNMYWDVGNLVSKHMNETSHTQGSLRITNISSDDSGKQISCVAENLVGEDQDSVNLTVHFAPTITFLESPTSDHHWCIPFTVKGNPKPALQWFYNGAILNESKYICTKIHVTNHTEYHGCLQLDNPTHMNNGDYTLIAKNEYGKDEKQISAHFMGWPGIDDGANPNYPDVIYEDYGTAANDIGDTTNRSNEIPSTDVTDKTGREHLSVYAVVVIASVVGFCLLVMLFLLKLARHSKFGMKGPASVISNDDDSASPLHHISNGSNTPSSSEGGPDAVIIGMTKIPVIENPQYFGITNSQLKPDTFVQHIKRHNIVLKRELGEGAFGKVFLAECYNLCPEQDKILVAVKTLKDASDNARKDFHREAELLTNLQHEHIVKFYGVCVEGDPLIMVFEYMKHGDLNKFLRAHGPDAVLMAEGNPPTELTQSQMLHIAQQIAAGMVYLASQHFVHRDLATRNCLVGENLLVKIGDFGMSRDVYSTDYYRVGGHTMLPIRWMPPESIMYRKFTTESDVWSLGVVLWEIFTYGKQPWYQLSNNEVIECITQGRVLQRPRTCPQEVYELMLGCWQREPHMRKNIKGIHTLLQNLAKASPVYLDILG

[17] = target: Tyrosine-protein kinase BTK (Homo sapiens, UniProt Q06187); test: Inhibition of BTK (unknown origin)
Tyrosine-protein kinase BTK, sequence (Q06187 whole entry): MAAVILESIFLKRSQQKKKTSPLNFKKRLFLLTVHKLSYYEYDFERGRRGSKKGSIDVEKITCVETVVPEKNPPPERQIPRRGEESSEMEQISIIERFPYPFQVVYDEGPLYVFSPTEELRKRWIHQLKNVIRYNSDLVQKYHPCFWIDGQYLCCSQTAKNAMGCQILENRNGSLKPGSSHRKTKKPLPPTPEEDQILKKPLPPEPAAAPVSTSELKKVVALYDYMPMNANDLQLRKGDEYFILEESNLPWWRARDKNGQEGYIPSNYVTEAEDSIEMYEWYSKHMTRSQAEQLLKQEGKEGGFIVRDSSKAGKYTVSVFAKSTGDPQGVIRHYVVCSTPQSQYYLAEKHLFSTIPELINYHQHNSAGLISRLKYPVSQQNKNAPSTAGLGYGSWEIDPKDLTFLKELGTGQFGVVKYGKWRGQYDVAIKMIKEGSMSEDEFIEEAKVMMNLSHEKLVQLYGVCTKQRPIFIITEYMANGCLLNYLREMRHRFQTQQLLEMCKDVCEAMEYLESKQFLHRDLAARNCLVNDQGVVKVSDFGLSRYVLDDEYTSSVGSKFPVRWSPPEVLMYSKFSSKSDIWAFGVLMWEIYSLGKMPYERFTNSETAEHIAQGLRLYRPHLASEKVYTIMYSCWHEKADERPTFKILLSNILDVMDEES

[18] = test system: SK-OV-3; test: Cytotoxicity against human SKOV3 cells after 24 to 72 hrs by MTT assay; assay type: functional, cell-based
[19] = test system: OVCAR-3; test: Cytotoxicity against human OVCAR3 cells after 24 to 72 hrs by MTT assay; assay type: functional, cell-based
[20] = target: T2, BDNF/NT-3 growth factors receptor; test: Inhibition of N- terminal GST-tagged human TRKB cytoplasmic domain (456 to 822 end residues) expressed in baculovirus expression system using TK peptide as substrate after 60 mins by HTRF assay
[21] = target: NT-3 growth factor receptor (Homo sapiens, UniProt Q16288); test: Inhibition of N- terminal GST-tagged human TRKC catalytic domain (456 to 825 end residues) expressed in baculovirus expression system using TK peptide as substrate after 60 mins by HTRF assay
NT-3 growth factor receptor, sequence (Q16288 whole entry, the tested form may be a part): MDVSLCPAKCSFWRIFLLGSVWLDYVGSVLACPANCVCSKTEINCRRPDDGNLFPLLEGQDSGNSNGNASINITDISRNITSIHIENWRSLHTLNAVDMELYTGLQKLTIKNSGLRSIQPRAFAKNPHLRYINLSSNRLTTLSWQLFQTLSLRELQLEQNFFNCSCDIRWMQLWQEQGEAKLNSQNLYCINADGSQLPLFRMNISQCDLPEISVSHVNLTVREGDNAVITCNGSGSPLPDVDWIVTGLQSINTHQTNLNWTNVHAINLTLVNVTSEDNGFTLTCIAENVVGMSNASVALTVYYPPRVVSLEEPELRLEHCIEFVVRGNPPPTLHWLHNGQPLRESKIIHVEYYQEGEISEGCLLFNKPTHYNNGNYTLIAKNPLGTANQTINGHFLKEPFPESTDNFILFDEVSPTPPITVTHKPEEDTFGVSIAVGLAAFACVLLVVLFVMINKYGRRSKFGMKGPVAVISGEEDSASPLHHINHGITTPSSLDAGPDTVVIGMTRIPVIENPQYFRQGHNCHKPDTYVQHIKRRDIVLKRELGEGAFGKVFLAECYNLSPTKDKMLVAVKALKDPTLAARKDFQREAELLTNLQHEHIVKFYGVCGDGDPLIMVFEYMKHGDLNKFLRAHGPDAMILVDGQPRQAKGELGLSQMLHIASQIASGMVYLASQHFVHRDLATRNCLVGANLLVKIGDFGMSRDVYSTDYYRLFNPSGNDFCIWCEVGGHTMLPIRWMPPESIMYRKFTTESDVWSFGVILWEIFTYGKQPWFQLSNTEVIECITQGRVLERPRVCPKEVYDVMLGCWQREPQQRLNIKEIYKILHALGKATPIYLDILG

[22] = target: T1, High affinity nerve growth factor receptor; test: Inhibition of N- terminal GST-tagged human TRKA cytoplasmic domain (436 to 790 end residues) using TK peptide as substrate after 60 mins by HTRF assay
[23] = target: Tyrosine-protein kinase JAK2 (Homo sapiens, UniProt O60674); test: Inhibition of N-terminal His-tagged human JAK2 catalytic domain (826 to 1132 end residues) expressed in baculovirus expression system using TK peptide as substrate after 120 mins by HTRF assay
Tyrosine-protein kinase JAK2, sequence (O60674 whole entry, the tested form may be a part): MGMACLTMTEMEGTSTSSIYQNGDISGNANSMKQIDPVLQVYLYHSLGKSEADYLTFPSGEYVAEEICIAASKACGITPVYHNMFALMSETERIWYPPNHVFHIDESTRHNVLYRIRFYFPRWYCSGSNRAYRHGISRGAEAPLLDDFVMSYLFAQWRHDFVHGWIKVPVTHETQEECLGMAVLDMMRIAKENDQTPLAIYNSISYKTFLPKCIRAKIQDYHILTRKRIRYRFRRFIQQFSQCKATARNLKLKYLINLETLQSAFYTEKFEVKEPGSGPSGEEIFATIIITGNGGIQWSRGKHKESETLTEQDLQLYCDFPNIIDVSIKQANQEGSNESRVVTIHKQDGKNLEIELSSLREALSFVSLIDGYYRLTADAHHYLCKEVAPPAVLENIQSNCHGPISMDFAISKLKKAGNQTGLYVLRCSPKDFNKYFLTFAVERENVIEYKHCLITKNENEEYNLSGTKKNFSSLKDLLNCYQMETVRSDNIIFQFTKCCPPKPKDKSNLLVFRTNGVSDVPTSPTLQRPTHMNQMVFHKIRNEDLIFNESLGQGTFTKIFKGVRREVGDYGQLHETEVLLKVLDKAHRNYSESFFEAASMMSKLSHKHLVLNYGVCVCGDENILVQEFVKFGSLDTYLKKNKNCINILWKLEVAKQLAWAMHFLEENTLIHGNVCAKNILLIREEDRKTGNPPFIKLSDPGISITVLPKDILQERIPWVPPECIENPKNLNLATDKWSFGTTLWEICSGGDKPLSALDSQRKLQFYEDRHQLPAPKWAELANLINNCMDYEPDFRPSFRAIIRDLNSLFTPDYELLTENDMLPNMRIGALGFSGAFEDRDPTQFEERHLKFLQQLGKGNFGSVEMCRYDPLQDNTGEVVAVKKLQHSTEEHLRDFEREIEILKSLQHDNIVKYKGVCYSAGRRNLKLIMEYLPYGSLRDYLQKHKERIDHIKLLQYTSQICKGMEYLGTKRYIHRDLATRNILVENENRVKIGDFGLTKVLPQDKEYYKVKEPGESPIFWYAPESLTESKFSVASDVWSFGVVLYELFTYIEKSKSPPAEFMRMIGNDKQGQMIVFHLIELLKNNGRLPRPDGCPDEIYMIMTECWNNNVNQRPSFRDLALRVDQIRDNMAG

T1 sequence (P04629 whole entry): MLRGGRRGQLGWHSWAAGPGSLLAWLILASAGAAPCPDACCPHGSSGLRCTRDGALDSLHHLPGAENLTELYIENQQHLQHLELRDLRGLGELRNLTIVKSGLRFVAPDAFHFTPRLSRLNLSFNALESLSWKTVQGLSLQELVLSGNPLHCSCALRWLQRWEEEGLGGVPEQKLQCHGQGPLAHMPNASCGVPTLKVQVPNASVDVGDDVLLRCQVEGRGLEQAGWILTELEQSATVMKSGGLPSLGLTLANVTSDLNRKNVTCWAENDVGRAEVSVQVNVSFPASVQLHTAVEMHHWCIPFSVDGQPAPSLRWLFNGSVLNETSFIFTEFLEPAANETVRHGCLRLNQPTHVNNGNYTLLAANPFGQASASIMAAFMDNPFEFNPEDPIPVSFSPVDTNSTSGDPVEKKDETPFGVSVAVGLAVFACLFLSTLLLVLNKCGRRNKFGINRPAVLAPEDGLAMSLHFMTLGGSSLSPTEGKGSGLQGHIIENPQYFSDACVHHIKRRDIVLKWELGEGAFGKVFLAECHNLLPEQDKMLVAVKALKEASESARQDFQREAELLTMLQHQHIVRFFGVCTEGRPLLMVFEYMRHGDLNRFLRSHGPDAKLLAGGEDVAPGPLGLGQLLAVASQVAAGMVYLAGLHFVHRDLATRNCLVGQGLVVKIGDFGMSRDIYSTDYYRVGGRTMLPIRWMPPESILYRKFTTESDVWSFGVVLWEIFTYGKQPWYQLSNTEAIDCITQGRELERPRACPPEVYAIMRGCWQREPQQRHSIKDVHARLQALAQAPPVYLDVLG

## CS(=N)(=O)c1ccc(-c2ccc(CNC(=O)Cn3c4c(c5ccccc53)CCn3nccc3-4)nc2)cc1 (stereo unspecified)
[1]
  IC50: 0.5 to 1 nM

## Nc1cc(NS(=O)(=O)c2cccc(C(F)(F)F)c2)cc(-c2ccc3c(-c4ccncc4)c[nH]c3n2)c1
[2]
  IC50: > 1000 nM

## Nc1cc(CNC(=O)c2cc(NC(=O)c3cc(-c4cccc(F)n4)c(F)cc3Cl)n(-c3ccccc3)n2)ccn1
[3]
  IC50: 1.04 nM

## C[C@H](Nc1cc(NCCO)c([N+](=O)[O-])c(Nc2cc(C3CC3)[nH]n2)c1)c1ccc(F)cc1
[2]
  IC50: 1240 nM

## COCCN1C[C@@H](NC(=O)Nc2cc3c(nc2-c2ccccc2)CCCC3)[C@H](c2ccccc2)C1
[4]
  IC50: < 100 nM

## OCC[C@H](Nc1nc(Nc2cc(C3CC3)[nH]n2)c2sccc2n1)c1ccc(F)cc1
[2]
  IC50: 59 nM

## CN1CCN(c2ccc(C(=O)Nc3n[nH]c4ccc(Cc5cc(F)cc(F)c5)cc34)c(NC3CCOCC3)c2)CC1 [ENTRECTINIB]
[5]
  IC50: 20 nM
[6]
  IC50: 81 nM
[7]
  IC50: 41 nM
[8]
  IC50: 81 nM
[9]
  IC50: 31 nM

## COc1ncc(F)cc1[C@H]1C[C@H](F)CN1c1ccn2ncc(C#N)c2n1
[10]
  IC50: < 10 nM

## Cn1ccc(-c2cc(C(=O)Nc3c(-c4ccccc4)nc4ccc(CO)cn34)ccc2C(F)(F)F)n1
[1]
  IC50: 1 nM

## O=C(c1cnc2ccc(N3CCCC3c3cc(F)ccc3F)cn12)N1CC(O)C1 (stereo unspecified)
[11]
  IC50: < 50 nM

## O=C(Cn1c2c(c3cc(F)ccc31)CCn1nccc1-2)NCc1ccc(-c2c(F)cccc2F)cn1
[1]
  IC50: 0.9 to 1 nM

## CN(C)CCCc1cc(C(=O)c2cccc(NC(=O)Nc3ccc(Cl)cc3Cl)c2)c2c(N)ncnn12
[12]
  IC50: < 1 nM

## C[C@H](Nc1ncc(Cl)c(Nc2cc(C3CC3)[nH]n2)n1)c1ccc(F)cn1
[2]
  IC50: 8 nM

## CC(C)c1cc(C(=O)c2cccc(NC(=O)Nc3ccc(Cl)cc3Cl)c2)c2c(N)ncnn12
[12]
  IC50: < 1 nM
[13]
  IC50: < 1 nM

## N#Cc1cc(F)cc([C@H]2C[C@H](F)CN2c2ccn3ncc(C#N)c3n2)c1
[10]
  IC50: < 10 nM

## COCCN1C[C@@H](NC(=O)Nc2cc3ccccc3nc2-c2ccccc2)[C@H](c2ccccc2)C1
[4]
  IC50: < 100 nM

## C[C@H](Nc1nc(Nc2cc(C3CC3)[nH]n2)c(F)cc1CNC(=O)C1CCC(=O)N1)c1ccc(F)cc1 (stereo partly specified)
[2]
  IC50: 611 nM

## COCCN1C[C@@H](NC(=O)Nc2c(C)c(C(C)(C)C)nn2-c2ccccc2)[C@H](c2ccc(F)c(F)c2)C1
[14]
  IC50: 1.3 nM
[1]
  IC50: 1.5 nM

## N#Cc1cnn2ccc(N3C[C@@H](F)C[C@@H]3c3cc(F)ccc3F)nc12
[10]
  IC50: < 10 nM

## CC(C)c1cc(C(=O)c2cccc(NC(=O)Nc3ccc(OCc4ccccc4)cc3)c2)c2c(N)ncnn12
[12]
  IC50: < 1 nM

## C[C@H](Oc1cc(-c2cnn(C3CCNCC3)c2)cnc1N)c1c(Cl)ccc(F)c1Cl
[15]
  IC50: 100 nM

## C[C@H](Nc1nccc(Nc2cc(C3CC3)[nH]n2)n1)c1ccc(F)cc1
[2]
  IC50: 67 nM

## CC(C)N1Cc2cc(cc(F)c2Cl)O[C@@H](C)CNC(=O)c2cnn3ccc1nc23
[16]
  IC50: 1500 nM
[1]
  IC50: 0.2 nM
[17]
  IC50: 0.536 nM

## CS(=N)(=O)c1ccc(-c2ccc(CNC(=O)Cn3c4c(c5cc(F)ccc53)CCn3nccc3-4)nc2)cc1 (stereo unspecified)
[1]
  IC50: 0.7 to 1 nM

## O=C(Nc1c(-c2ccccc2)nc2sccn12)NC1c2ccccc2-c2ccccc21
[1]
  IC50: 30 to 35 nM

## H-NTDLLNSNDNG-OH
[18]
  IC50: 200 nM
[19]
  IC50: 200 nM

## C[C@H](Nc1ncc(F)c(Nc2cc(C3CC3)[nH]n2)n1)c1ccc(F)cn1
[2]
  IC50: 10 nM

## CS(=O)(=O)Nc1cccc(-c2c[nH]c3ncc(-c4cncc(NS(=O)(=O)c5ccccc5)c4)cc23)c1
[2]
  IC50: > 1000 nM

## NC(=O)c1c(N)nn2cc(N3CCC[C@@H]3c3cc(F)ccc3F)cnc12
[20]
  IC50: < 10 nM
[21]
  IC50: < 10 nM
[22]
  IC50: < 1 nM
[23]
  IC50: > 2000 nM
